Measured values: patent EP4722201A1, “3-PHENYLISOXAZOLINE-5-CARBOXAMIDE COMPOUND, AND PREPARATION METHOD THEREFOR, HERBICIDAL COMPOSITION THEREOF AND USE THEREOF” (Jiangsu Flag Chemical Industry Co., Ltd, priority 2023, dated 2024)

What was measured:
Assay in all cases: Indoor herbicide activity determination, Seed Treatment; pre-emergence (soil spray)
Format in all cases: in vivo
Aegilops tauschii = conditions: read-out: Herbicidal activities (inhibition rate) Aegilops tauschii; for inhibition at 120 g/ha: 120 g a.i./ha
In short: (§1)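 Readout is percent inhibition of fresh weight relative to control plants, determined 21 days after treatment. Soil was sprayed one day after sowing, in a spray tower at 300 mm height and 390 mL/min nozzle flow, onto sandy soil of pH 6.1 with 1% organic matter.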

Alopecurus japonicus = system: Alopecurus japonicus
In short: as §1

Alopecurus myosuroides = system: Alopecurus myosuroides
In short: as §1

Cyperus iria = conditions: read-out: Herbicidal activities (inhibition rate) Cyperus iria; for inhibition at 120 g/ha: 120 g a.i./ha
In short: as §1

Digitaria sanguinalis = conditions: read-out: Herbicidal activities (inhibition rate) Digitaria sanguinalis; for inhibition at 120 g/ha: 120 g a.i./ha
In short: as §1

Eclipta prostrata = conditions: read-out: Herbicidal activities (inhibition rate) Eclipta prostrata; for inhibition at 120 g/ha: 120 g a.i./ha
In short: as §1

Leptochloa chinensis = system: Leptochloa chinensis
In short: as §1

Lolium multiflorum = conditions: Dosage 240 g a.i./ha
In short: as §1

Eleusine indica = conditions: Dosage 120 g a.i./ha
In short: as §1

| Compound | inhibition at 120 g/ha (Aegilops tauschii) [%] | Herbicidal activities, Alopecurus japonicus (inhibition rate class) (Alopecurus japonicus; Dosage 240 g a.i./ha) | Herbicidal activities, Alopecurus myosuroides (inhibition rate class) (Alopecurus myosuroides; Dosage 240 g a.i./ha) | inhibition at 120 g/ha (Cyperus iria) [%] | inhibition at 120 g/ha (Digitaria sanguinalis) [%] | inhibition at 120 g/ha (Eclipta prostrata) [%] | Herbicidal activities, Leptochloa chinensis (inhibition rate class) (Leptochloa chinensis; Dosage 240 g a.i./ha) | Herbicidal activities, Lolium multiflorum (inhibition rate class) (Lolium multiflorum) | inhibition at 60 g/ha (Aegilops tauschii; 60 g a.i./ha) [%] | Herbicidal activities, Alopecurus japonicus (inhibition rate class) (Alopecurus japonicus; Dosage 120 g a.i./ha) | Herbicidal activities, Alopecurus myosuroides (inhibition rate class) (Alopecurus myosuroides; Dosage 120 g a.i./ha) | inhibition at 60 g/ha (Cyperus iria; 60 g a.i./ha) [%] | inhibition at 60 g/ha (Digitaria sanguinalis; 60 g a.i./ha) [%] | inhibition at 60 g/ha (Eclipta prostrata; 60 g a.i./ha) [%] | Herbicidal activities, Eleusine indica (inhibition rate class) (Eleusine indica) | Herbicidal activities, Leptochloa chinensis (inhibition rate class) (Leptochloa chinensis; Dosage 120 g a.i./ha) |
| --- | --- | --- | --- | --- | --- | --- | --- | --- | --- | --- | --- | --- | --- | --- | --- | --- |
| COC(=O)[C@H]1C[C@@H](NC(=O)C2(C)CC(c3cc(F)cc(C(F)(F)F)c3)=NO2)CO1 (mixture of isomers) [I-377] | 80 to 100 | A (A indicates that the inhibition rate was greater than or equal to 80% to 100%) | A (A indicates that the inhibition rate was greater than or equal to 80% to 100%) | 60 to 80 | 80 to 100 | 40 to 60 | A (A indicates that the inhibition rate was greater than or equal to 80% to 100%) | A (A indicates that the inhibition rate was greater than or equal to 80% to 100%) |  |  |  |  |  |  |  |  |
| CC1(C(=O)N[C@H]2CO[C@@H](C(=O)O)C2)CC(c2cc(F)cc(OC(F)(F)F)c2)=NO1 (mixture of isomers) [I-378] | 80 to 100 | A (A indicates that the inhibition rate was greater than or equal to 80% to 100%) | A (A indicates that the inhibition rate was greater than or equal to 80% to 100%) | 60 to 80 | 80 to 100 | 40 to 60 | A (A indicates that the inhibition rate was greater than or equal to 80% to 100%) | A (A indicates that the inhibition rate was greater than or equal to 80% to 100%) |  |  |  |  |  |  |  |  |
| C#CCOC(=O)[C@H]1C[C@@H](NC(=O)[C@@]2(C(F)(F)F)CC(c3cc(F)cc(OC(F)(F)F)c3)=NO2)C1 [I-255] |  |  |  |  |  |  |  |  | 80 to 100 | A (A indicates that the inhibition rate was greater than or equal to 80% to 100%) | A (A indicates that the inhibition rate was greater than or equal to 80% to 100%) | 80 to 100 | 60 to 80 | 60 to 80 | A (A indicates that the inhibition rate was greater than or equal to 80% to 100%) | A (A indicates that the inhibition rate was greater than or equal to 80% to 100%) |
| COC(=O)C1CC(NC(=O)C2(C)CC(c3cc(Cl)cc(C(F)(F)F)c3)=NO2)CO1 (stereo not shown) [I-386] | 80 to 100 | A (A indicates that the inhibition rate was greater than or equal to 80% to 100%) | A (A indicates that the inhibition rate was greater than or equal to 80% to 100%) | 60 to 80 | 80 to 100 | 40 to 60 | A (A indicates that the inhibition rate was greater than or equal to 80% to 100%) | A (A indicates that the inhibition rate was greater than or equal to 80% to 100%) |  |  |  |  |  |  |  |  |
| COC(=O)C1CC(NC(=O)C2(C)CC(c3cc(Cl)cc(OC(F)(F)F)c3)=NO2)CO1 (stereo not shown) [I-387] | 80 to 100 | A (A indicates that the inhibition rate was greater than or equal to 80% to 100%) | A (A indicates that the inhibition rate was greater than or equal to 80% to 100%) | 60 to 80 | 80 to 100 | 60 to 80 | A (A indicates that the inhibition rate was greater than or equal to 80% to 100%) | A (A indicates that the inhibition rate was greater than or equal to 80% to 100%) |  |  |  |  |  |  |  |  |
| CC1(C(=O)NC2COC(C(=O)O)C2)CC(c2cc(Cl)cc(OC(F)F)c2)=NO1 (stereo not shown) [I-388] | 80 to 100 | A (A indicates that the inhibition rate was greater than or equal to 80% to 100%) | A (A indicates that the inhibition rate was greater than or equal to 80% to 100%) | 60 to 80 | 60 to 80 | 60 to 80 | A (A indicates that the inhibition rate was greater than or equal to 80% to 100%) | B (B indicates that the inhibition rate was greater than or equal to 60% to less than 80%) |  |  |  |  |  |  |  |  |
| COC(=O)C1CC(NC(=O)C2(C)CC(c3cc(Cl)cc(OC(F)F)c3)=NO2)CO1 (stereo not shown) [I-390] | 80 to 100 | A (A indicates that the inhibition rate was greater than or equal to 80% to 100%) | A (A indicates that the inhibition rate was greater than or equal to 80% to 100%) | 60 to 80 | 60 to 80 | 60 to 80 | A (A indicates that the inhibition rate was greater than or equal to 80% to 100%) | B (B indicates that the inhibition rate was greater than or equal to 60% to less than 80%) |  |  |  |  |  |  |  |  |
| COC(=O)C1CC(NC(=O)C2(C(F)(F)F)CC(c3cc(F)cc(C(F)(F)F)c3)=NO2)CO1 (stereo not shown) [I-392] | 80 to 100 | A (A indicates that the inhibition rate was greater than or equal to 80% to 100%) | A (A indicates that the inhibition rate was greater than or equal to 80% to 100%) | 60 to 80 | 80 to 100 | 60 to 80 | A (A indicates that the inhibition rate was greater than or equal to 80% to 100%) | A (A indicates that the inhibition rate was greater than or equal to 80% to 100%) |  |  |  |  |  |  |  |  |
| COC(=O)C1CC(NC(=O)C2(C(F)(F)F)CC(c3cc(F)cc(OC(F)(F)F)c3)=NO2)CO1 (stereo not shown) [I-393] | 80 to 100 | A (A indicates that the inhibition rate was greater than or equal to 80% to 100%) | A (A indicates that the inhibition rate was greater than or equal to 80% to 100%) | 60 to 80 | 60 to 80 | 60 to 80 | A (A indicates that the inhibition rate was greater than or equal to 80% to 100%) | A (A indicates that the inhibition rate was greater than or equal to 80% to 100%) |  |  |  |  |  |  |  |  |
| COC(=O)C1CC(NC(=O)C2(C(F)(F)F)CC(c3cc(F)cc(OC(F)F)c3)=NO2)CO1 (stereo not shown) [I-394] | 80 to 100 | A (A indicates that the inhibition rate was greater than or equal to 80% to 100%) | A (A indicates that the inhibition rate was greater than or equal to 80% to 100%) |  | 60 to 80 | 60 to 80 | A (A indicates that the inhibition rate was greater than or equal to 80% to 100%) | A (A indicates that the inhibition rate was greater than or equal to 80% to 100%) |  |  |  |  |  |  |  |  |
| O=C(O)C1CC(NC(=O)C2(C(F)(F)F)CC(c3cc(Cl)cc(OC(F)F)c3)=NO2)CO1 (stereo not shown) [I-395] | 60 to 80 |  | A (A indicates that the inhibition rate was greater than or equal to 80% to 100%) | 60 to 80 | 60 to 80 | 60 to 80 | A (A indicates that the inhibition rate was greater than or equal to 80% to 100%) | A (A indicates that the inhibition rate was greater than or equal to 80% to 100%) |  |  |  |  |  |  |  |  |
| COC(=O)C1CC(NC(=O)C2(C(F)(F)F)CC(c3cc(Cl)cc(C(F)(F)F)c3)=NO2)CO1 (stereo not shown) [I-399] | 80 to 100 | B (B indicates that the inhibition rate was greater than or equal to 60% to less than 80%) | A (A indicates that the inhibition rate was greater than or equal to 80% to 100%) | 60 to 80 | 80 to 100 | 60 to 80 | A (A indicates that the inhibition rate was greater than or equal to 80% to 100%) | B (B indicates that the inhibition rate was greater than or equal to 60% to less than 80%) |  |  |  |  |  |  |  |  |
| COC(=O)C1CC(NC(=O)C2(C(F)(F)F)CC(c3cc(Cl)cc(OC(F)(F)F)c3)=NO2)CO1 (stereo not shown) [I-400] | 80 to 100 |  | A (A indicates that the inhibition rate was greater than or equal to 80% to 100%) | 60 to 80 | 80 to 100 | 80 to 100 | A (A indicates that the inhibition rate was greater than or equal to 80% to 100%) |  |  |  |  |  |  |  |  |  |
